# In PubChem BioAssay (NCI):
#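 Method: 48-hour compound exposure of cells in 96-well plates, five concentrations, linear interpolation of endpoints. Abbreviation: GI50, concentration required for 50% inhibition of growth. TGI is the concentration that stops growth completely.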
# Tests used:
# Assay in all cases: growth of human tumour cells (NCI), 48 h
# SW-620 colon = test system: SW-620 colon
# A549 NSCLC = test system: A549 NSCLC
# LOX IMVI melanoma = test system: LOX IMVI melanoma
# SN12C renal = test system: SN12C renal
# RPMI-8226 leukemia = test system: RPMI-8226 leukemia
# PC-3 prostate = test system: PC-3 prostate
# MDA-MB-435 = test system: MDA-MB-435
# BT-549 breast = test system: BT-549 breast
# SR leukemia = test system: SR leukemia
# HOP-62 NSCLC = test system: HOP-62 NSCLC
# MDA-MB-231 breast = test system: MDA-MB-231 breast
# SK-MEL-28 melanoma = test system: SK-MEL-28 melanoma
# UO-31 renal = test system: UO-31 renal
# NCI-H460 lung = test system: NCI-H460 lung
# M14 melanoma = test system: M14 melanoma
# COLO 205 colon = test system: COLO 205 colon
# U251 CNS = test system: U251 CNS
# SK-MEL-5 melanoma = test system: SK-MEL-5 melanoma
# HCT-15 colon = test system: HCT-15 colon
# KM12 colon = test system: KM12 colon
# HOP-92 NSCLC = test system: HOP-92 NSCLC
# A498 renal = test system: A498 renal
# HCC-2998 colon = test system: HCC-2998 colon
# HT29 colon = test system: HT29 colon
# SNB-75 CNS = test system: SNB-75 CNS
# SK-OV-3 ovarian = test system: SK-OV-3 ovarian
# NCI-H522 lung = test system: NCI-H522 lung
# HS 578T breast = test system: HS 578T breast
# SF-295 CNS = test system: SF-295 CNS
# CAKI-1 renal = test system: CAKI-1 renal
# DU-145 prostate = test system: DU-145 prostate
# OVCAR-8 ovarian = test system: OVCAR-8 ovarian
# MALME-3M melanoma = test system: MALME-3M melanoma
# K-562 leukemia = test system: K-562 leukemia
# UACC-257 melanoma = test system: UACC-257 melanoma
# MCF7 breast = test system: MCF7 breast
# OVCAR-3 ovarian = test system: OVCAR-3 ovarian
# SF-539 CNS = test system: SF-539 CNS
# TK-10 renal = test system: TK-10 renal
# HL-60(TB) leukemia = test system: HL-60(TB) leukemia
# MOLT-4 leukemia = test system: MOLT-4 leukemia
# CCRF-CEM leukemia = test system: CCRF-CEM leukemia
# T-47D breast = test system: T-47D breast
# SK-MEL-2 melanoma = test system: SK-MEL-2 melanoma
# NCI-H23 lung = test system: NCI-H23 lung
# OVCAR-4 ovarian = test system: OVCAR-4 ovarian
# HCT-116 colon = test system: HCT-116 colon
# IGROV1 ovarian = test system: IGROV1 ovarian
# SNB-19 CNS = test system: SNB-19 CNS
# OVCAR-5 ovarian = test system: OVCAR-5 ovarian
# UACC-62 melanoma = test system: UACC-62 melanoma
# NCI/ADR-RES ovarian = test system: NCI/ADR-RES ovarian
# NCI-H226 lung = test system: NCI-H226 lung
# ACHN renal = test system: ACHN renal
# SF-268 CNS = test system: SF-268 CNS
# 786-0 renal = test system: 786-0 renal
smiles,measurement,setting,value
Cc1cc(Nc2cccc(F)c2)nc(NCc2ccccc2)n1,GI50,SW-620 colon,6.62 µM
same,TGI,SW-620 colon,23.7 µM
same,GI50,A549 NSCLC,6.44 µM
same,TGI,A549 NSCLC,22.8 µM
same,GI50,LOX IMVI melanoma,7.12 µM
same,TGI,LOX IMVI melanoma,28.7 µM
same,GI50,SN12C renal,6.12 µM
same,TGI,SN12C renal,23 µM
same,GI50,RPMI-8226 leukemia,2.03 µM
same,TGI,RPMI-8226 leukemia,7.97 µM
same,GI50,PC-3 prostate,4.34 µM
same,TGI,PC-3 prostate,18.7 µM
same,GI50,MDA-MB-435,5.72 µM
same,TGI,MDA-MB-435,20 µM
same,GI50,BT-549 breast,7.45 µM
same,TGI,BT-549 breast,23.2 µM
same,GI50,SR leukemia,3.28 µM
same,TGI,SR leukemia,10.1 µM
same,GI50,HOP-62 NSCLC,10.2 µM
same,TGI,HOP-62 NSCLC,23.4 µM
same,GI50,MDA-MB-231 breast,3.28 µM
same,TGI,MDA-MB-231 breast,14.1 µM
same,GI50,SK-MEL-28 melanoma,7.21 µM
same,TGI,SK-MEL-28 melanoma,20.6 µM
same,GI50,UO-31 renal,3.26 µM
same,TGI,UO-31 renal,19.3 µM
same,GI50,NCI-H460 lung,3.84 µM
same,TGI,NCI-H460 lung,15.8 µM
same,GI50,M14 melanoma,13.3 µM
same,TGI,M14 melanoma,30.8 µM
same,GI50,COLO 205 colon,1.73 µM
same,TGI,COLO 205 colon,3.31 µM
same,GI50,U251 CNS,3.32 µM
same,TGI,U251 CNS,8.34 µM
same,GI50,SK-MEL-5 melanoma,2.73 µM
same,TGI,SK-MEL-5 melanoma,10.1 µM
same,GI50,HCT-15 colon,4.98 µM
same,TGI,HCT-15 colon,24.6 µM
same,GI50,KM12 colon,5.46 µM
same,TGI,KM12 colon,19.7 µM
same,GI50,HOP-92 NSCLC,1.81 µM
same,TGI,HOP-92 NSCLC,11 µM
same,GI50,A498 renal,2.75 µM
same,TGI,A498 renal,10.7 µM
same,GI50,HCC-2998 colon,2 µM
same,TGI,HCC-2998 colon,4.19 µM
same,GI50,HT29 colon,3.7 µM
same,TGI,HT29 colon,13.4 µM
same,GI50,SNB-75 CNS,0.799 µM
same,TGI,SNB-75 CNS,13 µM
same,GI50,SK-OV-3 ovarian,10.6 µM
same,TGI,SK-OV-3 ovarian,22.5 µM
same,GI50,NCI-H522 lung,8.45 µM
same,TGI,NCI-H522 lung,24.7 µM
same,GI50,HS 578T breast,7.26 µM
same,TGI,HS 578T breast,32.7 µM
same,GI50,SF-295 CNS,6.57 µM
same,TGI,SF-295 CNS,27.1 µM
same,GI50,CAKI-1 renal,3.94 µM
same,TGI,CAKI-1 renal,17.8 µM
same,GI50,DU-145 prostate,11.3 µM
same,TGI,DU-145 prostate,23.9 µM
same,GI50,OVCAR-8 ovarian,3.9 µM
same,TGI,OVCAR-8 ovarian,18.2 µM
same,GI50,MALME-3M melanoma,3.8 µM
same,TGI,MALME-3M melanoma,17.7 µM
same,GI50,K-562 leukemia,2.89 µM
same,TGI,K-562 leukemia,12.9 µM
same,GI50,UACC-257 melanoma,3.95 µM
same,TGI,UACC-257 melanoma,15.5 µM
same,GI50,MCF7 breast,3.14 µM
same,TGI,MCF7 breast,15.7 µM
same,GI50,OVCAR-3 ovarian,8.65 µM
same,TGI,OVCAR-3 ovarian,21.7 µM
same,GI50,SF-539 CNS,10.8 µM
same,TGI,SF-539 CNS,24.7 µM
same,GI50,TK-10 renal,8.29 µM
same,TGI,TK-10 renal,21.4 µM
same,GI50,HL-60(TB) leukemia,3.91 µM
same,TGI,HL-60(TB) leukemia,17.2 µM
same,GI50,MOLT-4 leukemia,4.89 µM
same,TGI,MOLT-4 leukemia,19.8 µM
same,GI50,CCRF-CEM leukemia,4.75 µM
same,TGI,CCRF-CEM leukemia,22.1 µM
same,GI50,T-47D breast,3.71 µM
same,TGI,T-47D breast,18.5 µM
same,GI50,SK-MEL-2 melanoma,11 µM
same,TGI,SK-MEL-2 melanoma,25.4 µM
same,GI50,NCI-H23 lung,4.96 µM
same,TGI,NCI-H23 lung,21.9 µM
same,GI50,OVCAR-4 ovarian,4.42 µM
same,TGI,OVCAR-4 ovarian,37.6 µM
same,GI50,HCT-116 colon,3.34 µM
same,TGI,HCT-116 colon,18.2 µM
same,GI50,IGROV1 ovarian,5.44 µM
same,TGI,IGROV1 ovarian,24.6 µM
same,GI50,SNB-19 CNS,11.1 µM
same,TGI,SNB-19 CNS,26.8 µM
same,GI50,OVCAR-5 ovarian,12.4 µM
same,TGI,OVCAR-5 ovarian,29.9 µM
same,GI50,UACC-62 melanoma,5.61 µM
same,TGI,UACC-62 melanoma,20.2 µM
same,GI50,NCI/ADR-RES ovarian,6.38 µM
same,TGI,NCI/ADR-RES ovarian,38 µM
same,GI50,NCI-H226 lung,11.8 µM
same,TGI,NCI-H226 lung,35.2 µM
same,GI50,ACHN renal,7.76 µM
same,TGI,ACHN renal,26.1 µM
same,GI50,SF-268 CNS,11.3 µM
same,TGI,SF-268 CNS,28.6 µM
same,GI50,786-0 renal,6.62 µM
same,TGI,786-0 renal,22.1 µM
